Values quoted from earlier work, collected in publication PMC12281572.
Several values for one entry are separate records, joined by “and”; a condition that tells them apart may be missing. Equal entries are not always repeated.

Assay: FTIR, 4-fluorophenol as donor (the pK_BHX database, per the paper)
Conditions: CCl4; 25 C

SMILES	pK_BHX (log10 Kf of the 1:1 H-bond complex with 4-fluorophenol, by FTIR)
CC(=O)N1CCCC1	2.61 log units
COc1ccc(C#N)cc1	0.97 log units
CCN(CC)C(=S)N(C)C	1.29 log units
CC(=O)C12CC3CC(CC(C3)C1)C2	1.3 log units
CN(C)C=NC(=O)N(C)C	2.92 log units
CCN(CC)c1ccc([N+](=O)[O-])cc1	0.9 log units
O=C(c1ccccc1)N(c1ccccc1)c1ccccc1	1.61 log units
c1ccc2c(c1)CCO2	0.21 log units
c1ccc(C2CCCN2)cc1 (stereo not drawn)	1.93 log units
CS(=O)c1ccc([N+](=O)[O-])cc1 (stereo not drawn)	1.58 log units
CCC(C)=O	1.22 log units
CCCCCCCCN(CCCCCCCC)CCCCCCCC	1.57 log units
C1COCO1	0.45 log units
CN(C)C(=O)c1ccc(N(C)C)cc1	2.49 log units
O=C1CCCCCCC1	1.45 log units
CN(C)S(=O)(=O)c1ccccc1	0.89 log units
COC(=O)c1ccc(OC)cc1	1.08 log units
CC(C)(C)Br	-0.22 log units
CN=Cc1ccccc1	1.49 log units
O=C1CCCCCC1	1.41 log units
Cc1ccnc2c1ccc1c(C)ccnc12	3.34 log units
CCOC(=O)c1ccc(C#N)cc1	0.66 log units and 0.53 log units
CN1CC=CCC1	2.02 log units
CN1CCN(C)CC1	1.88 log units
N#Cc1ccccc1F	0.64 log units

SMILES	pK_BHX (log10 Kf of the 1:1 H-bond complex with 4-fluorophenol, by FTIR)
CCN(C(=O)N(CC)c1ccccc1)c1ccccc1	2.16 log units
CCOC(=O)c1ccccc1	0.94 log units
CCO	1.02 log units
O=C1c2ccccc2-c2ccccc21	1.09 log units
c1cncnc1	1.07 log units
CC(C)c1cccc(C(C)C)c1N	0.37 log units
N#CC12CC3CC(CC(C3)C1)C2	1.0 log units
CCN(CC(=O)N(CC)c1ccccc1)c1ccccc1	2.16 log units
CCC(=O)NC	2.24 log units
Ic1ccccc1	-0.64 log units
CCOC(=O)OCC	0.88 log units
CC(C)(C)C(=O)C12CC3CC(CC(C3)C1)C2	1.08 log units
C1CNC1	2.59 log units
N#Cc1ccccc1	0.8 log units
O=C1CCCCC1	1.39 log units
C=CSCC	-0.13 log units
Cc1ccc(C(=S)N(C)C)cc1	1.15 log units
CCOC(=O)C(F)(F)F	0.08 log units
CN=CN(C)C	2.7 log units
CN(C)C(=S)N(C)C	1.35 log units
CCCCCC#N	0.89 log units
[O-][n+]1ccccc1	2.72 log units
CC(=Nc1cccc(Cl)c1)N(C)c1cccc(Cl)c1	1.05 log units
CCOC(=O)c1ccc([N+](=O)[O-])cc1	0.5 log units and 0.16 log units
CC1=CCCCC1	-0.74 log units

SMILES	pK_BHX (log10 Kf of the 1:1 H-bond complex with 4-fluorophenol, by FTIR)
Brc1cncnc1	0.59 log units
NC1CCCCC1	2.29 log units
CN(C)C=NC12CC3CC(CC(C3)C1)C2	2.52 log units
c1ccc2c(c1)OCCO2	-0.23 log units
CN=C(c1ccccc1)N(C)C	2.62 log units
C(=Nc1ccccc1)c1ccccc1	0.87 log units
CCC(=O)N(C)C	2.36 log units
COc1ccc(C(=O)c2ccccc2)cc1	1.27 log units
COc1ccccc1C	-0.37 log units
CC(=O)N(C)c1ccccc1	2.19 log units
COC(OC)(OC)OC	0.26 log units
C1COCOC1	0.63 log units
Cc1cc(C(C)(C)C)nc(C(C)(C)C)c1	-0.45 log units
CCCCCI	-0.37 log units
O=C(c1ccccc1)c1ccccc1	1.07 log units
c1ncn(C2CCCCC2)c1C1CCCCC1	3.12 log units
c1ccc(C(c2ccccc2)c2ccccc2)cc1	-0.5 log units
c1ccc(N2CCCC2)cc1	0.16 log units
CCOC(=O)N(c1ccccc1)c1ccccc1	1.45 log units
CN1C(C)(C)CCCC1(C)C	1.23 log units
CC(=O)c1ccc([N+](=O)[O-])cc1	0.57 log units and 0.15 log units
Brc1ccc(N=C(Nc2ccc(Br)cc2)c2ccccc2)cc1	0.87 log units
C(=NCc1ccccc1)c1ccccc1	1.18 log units
CN(C)C(=S)Cl	0.5 log units
CC(C)C(=O)C(C)C	1.08 log units

SMILES	pK_BHX (log10 Kf of the 1:1 H-bond complex with 4-fluorophenol, by FTIR)
OCc1ccccc1	0.86 log units
CCN(CC)CC	1.98 log units
CCCN=CN(C)C	2.59 log units
CCOC(=O)C(=O)OCC	0.65 log units
CN(C)c1ccncc1	2.8 log units
C#CCN(C)C	1.6 log units
CCCCCCCCN	2.27 log units
c1cnoc1	0.81 log units
CN1CCCCCC1=O	2.53 log units
c1ccc(Cc2ccccc2)cc1	-0.41 log units
O	0.65 log units
CC(C)O	1.06 log units
CNc1ccc(C)cc1	0.43 log units
CC(C)(C)c1ccccn1	1.42 log units
CCCCc1ccccn1	1.88 log units
ClC12CC3CC(CC(C3)C1)C2	-0.18 log units
C=CCN=CN(C)C	2.48 log units
Cc1cnc2c(ccc3c(C)c(C)cnc32)c1C	3.46 log units
Cc1cc(C)ncn1	1.47 log units
CC(=Nc1ccc(C)cc1)Nc1ccc(C)cc1	2.01 log units
c1cocn1	1.3 log units
CCN(CC)c1ccc(C(=O)c2ccc(N(CC)CC)cc2)cc1	2.33 log units
Cc1ccncc1	2.07 log units
CCSC	0.18 log units
